Data reported in patent US5840684A, “Glycopeptide antibiotic derivatives” (Eli Lilly and Company, priority 1995, dated 1998).
Values after ≈ are worked out from the molar mass of the structure shown.

Columns and labels:
[1] = system: Entercoccus faecium 180-1; experiment: broth micro-dilution MIC; type: cell-based
Experimental: (§1) The MIC's were determined using a standard broth micro-dilution assay.

[2] = system: Staphylococcus aureus 446; experiment: broth micro-dilution MIC; type: cell-based
Experimental: as §1

[3] = system: Staphylococcus aureus 491; experiment: broth micro-dilution MIC; type: cell-based
Experimental: as §1

[4] = system: Staphylococcus aureus 489; experiment: broth micro-dilution MIC; type: cell-based
Experimental: as §1

[5] = system: Streptococcus pyogenes C203; experiment: broth micro-dilution MIC; type: cell-based
Experimental: as §1

[6] = system: Staphylococcus aureus 447; experiment: broth micro-dilution MIC; type: cell-based
Experimental: as §1

[7] = system: Staphylococcus aureus SA1199; experiment: broth micro-dilution MIC; type: cell-based
Experimental: as §1

Entercoccus faecium 276 = experiment: broth micro-dilution MIC; type: cell-based
Experimental: as §1

[8] = system: Staphylococcus aureus X400; experiment: broth micro-dilution MIC; type: cell-based
Experimental: as §1

[9] = system: Staphylococcus aureus X778; experiment: broth micro-dilution MIC; type: cell-based
Experimental: as §1

[10] = system: Staphylococcus aureus SA1199B; type: cell-based
Experimental: as §1

[11] = system: Staphylococcus aureus S13E; type: cell-based
Experimental: as §1

[12] = system: vancomycin-susceptible enterococci; experiment: broth micro-dilution, mean geometric MIC; type: cell-based, Enterococcus faecium and Enterococcus faecalis; settings: enterococci, 24-hour incubation
[13] = system: vancomycin-resistant enterococci; experiment: broth micro-dilution, mean geometric MIC; type: cell-based, Enterococcus faecium and Enterococcus faecalis; settings: enterococci, 24-hour incubation
[14] = system: Staphylococcus haemolyticus 105; experiment: broth micro-dilution MIC; type: cell-based
Experimental: (§2) The formula I compounds have in vitro and in vivo activity against Gram-positive pathogenic bacteria. The MIC's were determined using a standard broth micro-dilution assay.

[15] = system: Streptococcus pneumoniae P1; experiment: broth micro-dilution MIC; type: cell-based
Experimental: as §2

Entercoccus faecium 2041 = experiment: broth micro-dilution MIC; type: cell-based; settings: Entercoccus faecium 2041
Experimental: as §2

Entercoccus faecium 180 = experiment: broth micro-dilution MIC; type: cell-based; settings: Entercoccus faecium 180
Experimental: as §2

[16] = system: Enterococcus gallinarum 245; experiment: broth micro-dilution MIC; type: cell-based; settings: Enterococcus gallinarum 245
Experimental: as §2

[17] = system: Staphylococcus haemolyticus 415; experiment: broth micro-dilution MIC; type: cell-based
Experimental: as §2

[18] = system: Staphylococcus epidermidis 270; experiment: broth micro-dilution MIC; type: cell-based
Experimental: as §2

[19] = system: Staphylococcus aureus SA1199A; experiment: broth micro-dilution MIC; type: cell-based
Experimental: as §1

Compound | MIC [1] | MIC [2] | MIC [3] | MIC [4] | MIC [5] | MIC [6] | MIC [7] | MIC (Entercoccus faecium 276) | MIC [8] | MIC [9] | MIC [10] | MIC [11] | mean geometric MIC, Vancomycin Sensitive Strains [12] | mean geometric MIC, Vancomycin Resistant Strains [13] | MIC [14] | MIC [15] | MIC (Entercoccus faecium 2041) | MIC [16] | MIC [17] | MIC [18] | further results
CNC(CC(C)C)C(=O)NC1C(=O)NC(CC(N)=O)C(=O)NC2C(=O)NC3C(=O)NC(C(=O)NC(C(=O)O)c4cc(O)cc(O)c4-c4cc3ccc4O)C(OC3CC(C)(N)C(O)C(C)O3)c3ccc(c(Cl)c3)Oc3cc2cc(c3OC2OC(CO)C(O)C(O)C2OC2CC(C)(NCc3ccc(OC)c4ccccc34)C(O)C(C)O2)Oc2ccc(cc2Cl)C1O (centres unmarked) [Compound 15] | ≤ 0.06 µg/mL | 1 µg/mL (≈ 0.567 µM) | 0.25 µg/mL (≈ 0.142 µM) | ≤ 0.06 µg/mL | ≤ 0.06 µg/mL | 2 µg/mL (≈ 1.13 µM) | 0.25 µg/mL (≈ 0.142 µM) | ≤ 0.06 µg/mL | 0.25 µg/mL (≈ 0.142 µM) | 0.25 µg/mL (≈ 0.142 µM) | 0.25 µg/mL (≈ 0.142 µM) | 0.5 µg/mL (≈ 0.284 µM) | 0.14 µg/mL | 6.7 µg/mL | 0.5 µg/mL (≈ 0.284 µM) | ≤ 0.06 µg/mL | ≤ 0.06 µg/mL | ≤ 0.06 µg/mL | 2 µg/mL (≈ 1.13 µM) | 1 µg/mL (≈ 0.567 µM) | MIC (Entercoccus faecium 180): 0.5 µg/mL (≈ 0.284 µM)
CNC(CC(C)C)C(=O)NC1C(=O)NC(CC(N)=O)C(=O)NC2C(=O)NC3C(=O)NC(C(=O)NC(C(=O)O)c4cc(O)cc(O)c4-c4cc3ccc4O)C(OC3CC(C)(N)C(O)C(C)O3)c3ccc(c(Cl)c3)Oc3cc2cc(c3OC2OC(CO)C(O)C(O)C2OC2CC(C)(NCc3ccc(OCCCC#N)cc3)C(O)C(C)O2)Oc2ccc(cc2Cl)C1O (centres unmarked) [Compound 55] | ≤ 0.06 µg/mL | 0.5 µg/mL (≈ 0.283 µM) | 0.5 µg/mL (≈ 0.283 µM) | 1 µg/mL (≈ 0.566 µM) | ≤ 0.06 µg/mL | 4 µg/mL (≈ 2.27 µM) | 0.5 µg/mL (≈ 0.283 µM) | 0.5 µg/mL (≈ 0.283 µM) | ≤ 0.06 µg/mL | 0.5 µg/mL (≈ 0.283 µM) | 0.5 µg/mL (≈ 0.283 µM) | 0.5 µg/mL (≈ 0.283 µM) | 1.7 µg/mL | 13 µg/mL | 4 µg/mL (≈ 2.27 µM) | ≤ 0.06 µg/mL | 0.125 µg/mL (≈ 0.0708 µM) | – | – | 1 µg/mL (≈ 0.566 µM) | MIC [19]: ≤ 0.06 µg/mL; MIC (Entercoccus faecium 180): 2 µg/mL (≈ 1.13 µM)
CNC(CC(C)C)C(=O)NC1C(=O)NC(CC(N)=O)C(=O)NC2C(=O)NC3C(=O)NC(C(=O)NC(C(=O)O)c4cc(O)cc(O)c4-c4cc3ccc4O)C(OC3CC(C)(N)C(O)C(C)O3)c3ccc(c(Cl)c3)Oc3cc2cc(c3OC2OC(CO)C(O)C(O)C2OC2CC(C)(NCc3ccc4c(c3O)Cc3ccccc3-4)C(O)C(C)O2)Oc2ccc(cc2Cl)C1O (centres unmarked) [Compound 103] | ≤ 0.06 µg/mL | 0.5 µg/mL (≈ 0.28 µM) | 1 µg/mL (≈ 0.56 µM) | ≤ 0.06 µg/mL | ≤ 0.06 µg/mL | 1 µg/mL (≈ 0.56 µM) | 1 µg/mL (≈ 0.56 µM) | 0.25 µg/mL (≈ 0.14 µM) | ≤ 0.06 µg/mL | 0.5 µg/mL (≈ 0.28 µM) | 2 µg/mL (≈ 1.12 µM) | 1 µg/mL (≈ 0.56 µM) | 0.33 µg/mL | 4.0 µg/mL | 4 µg/mL (≈ 2.24 µM) | ≤ 0.06 µg/mL | ≤ 0.06 µg/mL | 8 µg/mL (≈ 4.48 µM) | 8 µg/mL (≈ 4.48 µM) | 1 µg/mL (≈ 0.56 µM) | MIC [19]: ≤ 0.06 µg/mL
CNC(CC(C)C)C(=O)NC1C(=O)NC(CC(N)=O)C(=O)NC2C(=O)NC3C(=O)NC(C(=O)NC(C(=O)O)c4cc(O)cc(O)c4-c4cc3ccc4O)C(OC3CC(C)(N)C(O)C(C)O3)c3ccc(c(Cl)c3)Oc3cc2cc(c3OC2OC(CO)C(O)C(O)C2OC2CC(C)(NCc3cccc(OCc4ccc5ccccc5n4)c3)C(O)C(C)O2)Oc2ccc(cc2Cl)C1O (centres unmarked) [Compound 125] | ≤ 0.06 µg/mL | 4 µg/mL (≈ 2.17 µM) | 1 µg/mL (≈ 0.544 µM) | 2 µg/mL (≈ 1.09 µM) | ≤ 0.06 µg/mL | 2 µg/mL (≈ 1.09 µM) | 0.5 µg/mL (≈ 0.272 µM) | 2 µg/mL (≈ 1.09 µM) | 1 µg/mL (≈ 0.544 µM) | 2 µg/mL (≈ 1.09 µM) | 2 µg/mL (≈ 1.09 µM) | 1 µg/mL (≈ 0.544 µM) | 0.14 µg/mL | 3.4 µg/mL | 4 µg/mL (≈ 2.17 µM) | ≤ 0.06 µg/mL | ≤ 0.06 µg/mL | 12 µg/mL (≈ 6.52 µM) | 2 µg/mL (≈ 1.09 µM) | 1 µg/mL (≈ 0.544 µM) | MIC (Entercoccus faecium 180): 1 µg/mL (≈ 0.544 µM)
CNC(CC(C)C)C(=O)NC1C(=O)NC(CC(N)=O)C(=O)NC2C(=O)NC3C(=O)NC(C(=O)NC(C(=O)O)c4cc(O)cc(O)c4-c4cc3ccc4O)C(OC3CC(C)(N)C(O)C(C)O3)c3ccc(c(Cl)c3)Oc3cc2cc(c3OC2OC(CO)C(O)C(O)C2OC2CC(C)(NCc3ccc(OCCC4CCCCC4)cc3)C(O)C(C)O2)Oc2ccc(cc2Cl)C1O (centres unmarked) [Compound 127] | ≤ 0.06 µg/mL | 1 µg/mL (≈ 0.553 µM) | 1 µg/mL (≈ 0.553 µM) | 2 µg/mL (≈ 1.11 µM) | ≤ 0.06 µg/mL | 2 µg/mL (≈ 1.11 µM) | 2 µg/mL (≈ 1.11 µM) | ≤ 0.06 µg/mL | 2 µg/mL (≈ 1.11 µM) | 1 µg/mL (≈ 0.553 µM) | 2 µg/mL (≈ 1.11 µM) | 2 µg/mL (≈ 1.11 µM) | 0.33 µg/mL | 1.2 µg/mL | 2 µg/mL (≈ 1.11 µM) | ≤ 0.06 µg/mL | ≤ 0.06 µg/mL | 4 µg/mL (≈ 2.21 µM) | 4 µg/mL (≈ 2.21 µM) | ≤ 0.06 µg/mL | MIC (Entercoccus faecium 180): ≤ 0.06 µg/mL
CNC(CC(C)C)C(=O)NC1C(=O)NC(CC(N)=O)C(=O)NC2C(=O)NC3C(=O)NC(C(=O)NC(C(=O)O)c4cc(O)cc(O)c4-c4cc3ccc4O)C(OC3CC(C)(N)C(O)C(C)O3)c3ccc(c(Cl)c3)Oc3cc2cc(c3OC2OC(CO)C(O)C(O)C2OC2CC(C)(NCc3cccc(Oc4ccc(C(F)(F)F)cc4)c3)C(O)C(C)O2)Oc2ccc(cc2Cl)C1O (centres unmarked) [Compound 132] | ≤ 0.06 µg/mL | 1 µg/mL (≈ 0.543 µM) | 0.5 µg/mL (≈ 0.271 µM) | 1 µg/mL (≈ 0.543 µM) | ≤ 0.06 µg/mL | 2 µg/mL (≈ 1.09 µM) | 1 µg/mL (≈ 0.543 µM) | 1 µg/mL (≈ 0.543 µM) | 1 µg/mL (≈ 0.543 µM) | 2 µg/mL (≈ 1.09 µM) | 2 µg/mL (≈ 1.09 µM) | 2 µg/mL (≈ 1.09 µM) | 0.048 µg/mL | 1.2 µg/mL | 1 µg/mL (≈ 0.543 µM) | ≤ 0.06 µg/mL | 1 µg/mL (≈ 0.543 µM) | 2 µg/mL (≈ 1.09 µM) | 2 µg/mL (≈ 1.09 µM) | 2 µg/mL (≈ 1.09 µM) | –
CNC(CC(C)C)C(=O)NC1C(=O)NC(CC(N)=O)C(=O)NC2C(=O)NC3C(=O)NC(C(=O)NC(C(=O)O)c4cc(O)cc(O)c4-c4cc3ccc4O)C(OC3CC(C)(N)C(O)C(C)O3)c3ccc(c(Cl)c3)Oc3cc2cc(c3OC2OC(CO)C(O)C(O)C2OC2CC(C)(NCc3ccc(OCCOC(C)(C)C)cc3)C(O)C(C)O2)Oc2ccc(cc2Cl)C1O (centres unmarked) [Compound 154] | ≤ 0.06 µg/mL | 2 µg/mL (≈ 1.11 µM) | 0.5 µg/mL (≈ 0.278 µM) | 1 µg/mL (≈ 0.556 µM) | ≤ 0.06 µg/mL | 2 µg/mL (≈ 1.11 µM) | 2 µg/mL (≈ 1.11 µM) | 0.5 µg/mL (≈ 0.278 µM) | 2 µg/mL (≈ 1.11 µM) | 0.5 µg/mL (≈ 0.278 µM) | 0.25 µg/mL (≈ 0.139 µM) | 0.25 µg/mL (≈ 0.139 µM) | 0.072 µg/mL | 2.8 µg/mL | 4 µg/mL (≈ 2.22 µM) | ≤ 0.06 µg/mL | – | 4 µg/mL (≈ 2.22 µM) | 4 µg/mL (≈ 2.22 µM) | 0.5 µg/mL (≈ 0.278 µM) | MIC (Entercoccus faecium 180): 1 µg/mL (≈ 0.556 µM)
CNC(CC(C)C)C(=O)NC1C(=O)NC(CC(N)=O)C(=O)NC2C(=O)NC3C(=O)NC(C(=O)NC(C(=O)O)c4cc(O)cc(O)c4-c4cc3ccc4O)C(OC3CC(C)(N)C(O)C(C)O3)c3ccc(c(Cl)c3)Oc3cc2cc(c3OC2OC(CO)C(O)C(O)C2OC2CC(C)(NCc3ccc(-c4ccc(C)cc4)c(C)c3)C(O)C(C)O2)Oc2ccc(cc2Cl)C1O (centres unmarked) [Compound 225] | ≤ 0.06 µg/mL | 1 µg/mL (≈ 0.56 µM) | 1 µg/mL (≈ 0.56 µM) | 2 µg/mL (≈ 1.12 µM) | ≤ 0.06 µg/mL | 1 µg/mL (≈ 0.56 µM) | 1 µg/mL (≈ 0.56 µM) | – | 1 µg/mL (≈ 0.56 µM) | 0.5 µg/mL (≈ 0.28 µM) | 2 µg/mL (≈ 1.12 µM) | 1 µg/mL (≈ 0.56 µM) | 0.072 µg/mL | 0.63 µg/mL | 0.5 µg/mL (≈ 0.28 µM) | ≤ 0.06 µg/mL | 0.125 µg/mL (≈ 0.07 µM) | 4 µg/mL (≈ 2.24 µM) | 4 µg/mL (≈ 2.24 µM) | 1 µg/mL (≈ 0.56 µM) | MIC (Entercoccus faecium 180): ≤ 0.06 µg/mL
